# According to ChEMBL document CHEMBL4699507, “Rhopaladins' analogue (E)-2-aroyl-4-(4-fluorobenzylidene)-5-oxopyrrolidines inhibit proliferation, promote apoptosis and down-regulation of E6/E7 mRNA in cervical cancer” (2020):
# Experiments:
# Ca-Ski [1] = experiment: Induction of apoptosis in human CaSki cells assessed as early apoptotic cells at 25 uM after 48 hrs by Annexin V-FITC/PI double staining based flow cytometric analysis (Rvb =0.697%); assay type: functional
# Ca-Ski [2] = experiment: Induction of apoptosis in human CaSki cells after 48 hrs by Annexin V-FITC/PI double staining based flow cytometric analysis; assay type: functional, cell-based; details: dose microM 12.5-50, time 48.0 hrs
# [3] = Inhibition of Human papillomavirus type 16 derived E6 gene expression in human CaSki cells assessed as fold change in expression at 12.5 uM measured after 48 hrs by RT-qPCR analysis relative to control; assay type: functional, Ca-Ski
# Ca-Ski [4] = experiment: Induction of apoptosis in human CaSki cells at 50 uM after 48 hrs by Annexin V-FITC/PI double staining based flow cytometric analysis (reference value: 6.25 +/-0.5%); assay type: functional
# [5] = Inhibition of Human papillomavirus type 16 derived E7 gene expression in human CaSki cells assessed as fold change in expression at 12.5 uM measured after 48 hrs by RT-qPCR analysis relative to control; assay type: functional, Ca-Ski
# Ca-Ski [6] = experiment: Induction of apoptosis in human CaSki cells assessed as early apoptotic cells at 50 uM after 48 hrs by Annexin V-FITC/PI double staining based flow cytometric analysis (Rvb =0.697%); assay type: functional
# Ca-Ski [7] = experiment: Induction of apoptosis in human CaSki cells assessed as viable cells at 12.5 uM after 48 hrs by Annexin V-FITC/PI double staining based flow cytometric analysis (reference value: 93%); assay type: functional; details: read-out: Activity
# Ca-Ski [8] = experiment: Induction of apoptosis in human CaSki cells assessed as late apoptotic cells at 12.5 uM after 48 hrs by Annexin V-FITC/PI double staining based flow cytometric analysis (Rvb =5.59%); assay type: functional
# Ca-Ski [9] = experiment: Induction of apoptosis in human CaSki cells assessed as necrotic cells at 12.5 uM after 48 hrs by Annexin V-FITC/PI double staining based flow cytometric analysis (Rvb =0.075%); assay type: functional
# Ca-Ski [10] = experiment: Induction of apoptosis in human CaSki cells assessed as viable cells at 25 uM after 48 hrs by Annexin V-FITC/PI double staining based flow cytometric analysis (reference value: 93%); assay type: functional; details: read-out: Activity
# Ca-Ski [11] = experiment: Induction of apoptosis in human CaSki cells assessed as necrotic cells at 25 uM after 48 hrs by Annexin V-FITC/PI double staining based flow cytometric analysis (Rvb =0.075%); assay type: functional
# [12] = Inhibition of Human papillomavirus type 16 derived E7 gene expression in human CaSki cells assessed as fold change in expression at 50 uM measured after 48 hrs by RT-qPCR analysis relative to control; assay type: functional, Ca-Ski
# Ca-Ski [13] = experiment: Induction of apoptosis in human CaSki cells assessed as late apoptotic cells at 50 uM after 48 hrs by Annexin V-FITC/PI double staining based flow cytometric analysis (Rvb =5.59%); assay type: functional
# Ca-Ski [14] = experiment: Induction of apoptosis in human CaSki cells assessed as early apoptotic cells at 12.5 uM after 48 hrs by Annexin V-FITC/PI double staining based flow cytometric analysis (Rvb =0.697%); assay type: functional
# Ca-Ski [15] = experiment: Induction of apoptosis in human CaSki cells assessed as viable cells at 50 uM after 48 hrs by Annexin V-FITC/PI double staining based flow cytometric analysis (reference value: 93%); assay type: functional; details: read-out: Activity
# [16] = Inhibition of Human papillomavirus type 16 derived E6 gene expression in human CaSki cells assessed as fold change in expression at 50 uM measured after 48 hrs by RT-qPCR analysis relative to control; assay type: functional, Ca-Ski
# Ca-Ski [17] = experiment: Induction of apoptosis in human CaSki cells assessed as necrotic cells at 50 uM after 48 hrs by Annexin V-FITC/PI double staining based flow cytometric analysis (Rvb =0.075%); assay type: functional
# Ca-Ski [18] = experiment: Induction of apoptosis in human CaSki cells assessed as late apoptotic cells at 25 uM after 48 hrs by Annexin V-FITC/PI double staining based flow cytometric analysis (Rvb =5.59%); assay type: functional
# [19] = Inhibition of Human papillomavirus type 16 derived E7 gene expression in human CaSki cells assessed as fold change in expression at 25 uM measured after 48 hrs by RT-qPCR analysis relative to control; assay type: functional, Ca-Ski
# Ca-Ski [20] = experiment: Antiproliferative activity against human CaSki cells assessed as inhibition of cell viability incubated for 48 hrs by MTT assay; assay type: functional, cell-based; details: dose microM 3.125-100, time 48.0 hrs
# Ca-Ski [21] = experiment: Induction of apoptosis in human CaSki cells at 25 uM after 48 hrs by Annexin V-FITC/PI double staining based flow cytometric analysis (reference value: 6.25 +/-0.5%); assay type: functional
# [22] = Inhibition of Human papillomavirus type 16 derived E6 gene expression in human CaSki cells assessed as fold change in expression at 25 uM measured after 48 hrs by RT-qPCR analysis relative to control; assay type: functional, Ca-Ski
# Ca-Ski [23] = experiment: Induction of apoptosis in human CaSki cells at 12.5 uM after 48 hrs by Annexin V-FITC/PI double staining based flow cytometric analysis (reference value: 6.25 +/-0.5%); assay type: functional
# Ca-Ski [24] = experiment: Antiproliferative activity against human CaSki cells assessed as reduction in cell viability at 3.125-100 uM by MTT assay; assay type: functional, cell-based; details: dose microM 3.125-100, time hrs 24-72, TDE = time-dependent effect
smiles,measurement,setting,value
CC(C)N1C(=O)/C(=C/c2ccc(F)cc2)CC1(C(=O)NC(C)(C)C)C(=O)c1ccc(Cl)cc1 (stereo unspecified),Activity,Ca-Ski [1],14.9%
same,Activity,Ca-Ski [2],Dose-dependent effect
same,fold change (FC),[3],0.653
same,Activity,Ca-Ski [4],41.2%
same,fold change (FC),[5],0.483
same,Activity,Ca-Ski [6],26.2%
same,viability at 12.5 µM,Ca-Ski [7],85.4%
same,Activity,Ca-Ski [8],6.24%
same,Activity,Ca-Ski [9],0.18%
same,viability at 25 µM,Ca-Ski [10],75.3%
same,Activity,Ca-Ski [11],0.105%
same,fold change (FC),[12],0.432
same,Activity,Ca-Ski [13],15%
same,Activity,Ca-Ski [14],8.2%
same,viability at 50 µM,Ca-Ski [15],58.5%
same,fold change (FC),[16],0.354
same,Activity,Ca-Ski [17],0.217%
same,Activity,Ca-Ski [18],9.65%
same,fold change (FC),[19],0.465
same,Activity,Ca-Ski [20],Dose-dependent effect
same,Activity,Ca-Ski [21],23.56%
same,fold change (FC),[22],0.547
same,Activity,Ca-Ski [23],15.6%
same,Activity,Ca-Ski [24],Tde
CC(C)N1C(=O)/C(=C/c2ccc(F)cc2)CC1(C(=O)NC(C)(C)C)C(=O)c1ccc(Br)cc1 (stereo unspecified),Activity,Ca-Ski [20],Dose-dependent effect
CCCCN1C(=O)/C(=C/c2ccc(F)cc2)CC1(C(=O)NC(C)(C)C)C(=O)c1ccc(Cl)cc1 (stereo unspecified),Activity,Ca-Ski [20],Dose-dependent effect
